Measured values published in patent US8119624B2, “Fused phenyl amido heterocyclic compounds” (Pfizer Inc., priority 2006, dated 2012).
Read-outs that look alike come from different tables or passages of the source.

Biological target: T1, Full-length glucokinase (beta cell isoform) (Homo sapiens, UniProt P35557)
T1 construct: Full-length glucokinase (beta cell isoform) was His-tagged at N-terminus; His tag (N); made in house
T1 sequence (P35557 1-465): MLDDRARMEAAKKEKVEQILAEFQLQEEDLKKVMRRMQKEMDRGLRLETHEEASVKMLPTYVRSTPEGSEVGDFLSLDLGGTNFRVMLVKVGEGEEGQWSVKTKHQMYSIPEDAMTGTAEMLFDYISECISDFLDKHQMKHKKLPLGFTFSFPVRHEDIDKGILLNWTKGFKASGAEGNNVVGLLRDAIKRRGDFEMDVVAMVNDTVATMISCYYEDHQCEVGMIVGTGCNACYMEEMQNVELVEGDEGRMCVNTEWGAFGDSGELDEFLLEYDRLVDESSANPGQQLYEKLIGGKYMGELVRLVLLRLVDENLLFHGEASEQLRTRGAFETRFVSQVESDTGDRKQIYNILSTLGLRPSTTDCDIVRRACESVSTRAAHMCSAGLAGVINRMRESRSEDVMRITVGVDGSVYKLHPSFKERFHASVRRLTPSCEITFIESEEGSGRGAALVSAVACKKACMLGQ
Assay: Glucokinase biochemical assay (PK/LDH-coupled, NADH depletion at 340 nm): % activation, EC50, % max activation
Conditions: 5 mM glucose; for activation at 10 µM: read-out: % Activation at 10 uM; for EC50: read-out: EC50; for Emax: fitted maximum activation, read-out: % Max Activation
Method: Full-length glucokinase (beta cell isoform) was His-tagged at N-terminus and purified by a Ni column followed by size exclusion chromatography. Glucose was obtained from Calbiochem, and other reagents were from Sigma.
All assays were performed in a Corning 96-well plate using Spectramax PLUS spectrophotometer (Molecular Devices) at room temperature. The final assay volume was 100 uL. The buffer conditions used in this assay were as follows: 50 mM HEPES, 5 mM glucose, 1 mM ATP, 2 mM MgCl2, 0.7mM NADH, 2 mM DTT, 1 Unit/mL PK/LDH, 0.2 mM phosphoenolpyruvate, 25 mM KCl. Tested compound in DMSO solution was added to the buffer and mixed well by a plate shaker for 1 minute. The final concentration of DMSO introduced into the assay was 1%.
Glucokinase was added to the buffer mixture to initiate the reaction in the presence and absence of compound. Reaction was monitored by absorbance at 340nm due to the depletion of NADH. The initial reaction velocity was measured by the slope of a linear time course of 200-900 sec.
The percentage of activation was calculated by the following equation: % Activation=(Va/Vo−1)×100;
wherein each of Va and Vo is defined as the initial reaction velocity in the presence and absence of the tested compound, respectively.
The GK activities were measured as a function of compound concentrations.

[1] = 10 uM compound, % Activation=(Va/Vo−1)×100

| Compound | activation at 10 µM [1] [%] | EC50 (GK activation) [nM] | Emax [%] | EC50 (1 mM ATP, room temperature) [nM] | activation at 10 µM (compound at 10 uM, 1 mM ATP, room temperature) [%] | Emax (1 mM ATP) [%] |
| --- | --- | --- | --- | --- | --- | --- |
| Cc1ccc(NC(=O)c2cc(Oc3ccc(S(C)(=O)=O)cc3)c3c(c2)C(=O)N(C)C3)nc1 [Example 376, 2-Methyl-N-(5-methylpyridin-2-yl)-7-(4-(methylsulfonyl)-phenoxy)-3-oxoisoindoline-5-carboxamide] |  |  |  | 6400 | 73.1 | 90 |
| CN(C)C(=O)c1ccc(Oc2cc(C(=O)Nc3ccn(C)n3)cc3sccc23)cc1F [Example 357, 4-(4-(Dimethylcarbamoyl)-3-fluorophenoxy)-N-(1-methyl-1H-pyrazol-3-yl)benzo[b]thiophene-6-carboxamide] | 32.7 |  |  |  |  |  |
| Cn1ccc(NC(=O)c2cc(Oc3ccc(-c4ncon4)cc3)c3c(c2)OC(C)(C)C3)n1 [Example 187, 2,2-Dimethyl-4-(4-[1,2,4]oxadiazol-3-yl-phenoxy)-2,3-dihydro-benzofuran-6-carboxylic acid (1-methyl-1H-pyrazol-3-yl)-amide] | 178 | > 10000 |  |  |  |  |
| CC(Oc1cc(C(=O)Nc2ccn(C)n2)cc2c1CC(C)(C)O2)c1ccncn1 (stereo not drawn) [Example 86, 2,2-Dimethyl-4-(1-pyrimidin-4-yl-ethoxy)-2,3-dihydro-benzofuran-6-carboxylic acid (1-methyl-1H-pyrazol-3-yl)-amide] | 124 | 4800 | 159 |  |  |  |
| Cc1cc2cc(C(=O)Nc3ccn(C)n3)cc(O[C@@H](C)Cc3ccccc3)c2s1 [Example 328, 2-Methyl-7-(1-methyl-2-phenylethoxy)-N-(1-methyl-1H-pyrazol-3-yl)-1-benzothiophene-5-carboxamide] | 41.3 | > 10000 |  |  |  |  |
| CCc1cc2c(Oc3ccc(C(=O)N(C)C)cc3)cc(C(=O)Nc3ccc(C)cn3)cc2o1 [Example 276, 4-{4-[(Dimethylamino)carbonyl]phenoxy}-2-ethyl-N-(5-methylpyridin-2-yl)-1-benzofuran-6-carboxamide] | 20 |  |  |  |  |  |
| Cc1ccc(NC(=O)c2cc(OC3CN(C(=O)N(C)C)C3)c3cc(C)oc3c2)nc1 [Example 324, N,N-Dimethyl-3-[(2-methyl-6-{[(5-methylpyridin-2-yl)amino]-carbonyl}-1-benzofuran-4-yl)oxy]azetidine-1-carboxamide] | 18.2 |  |  |  |  |  |
| Cc1cc2c(Oc3ccc(S(C)(=O)=O)cc3)cc(C(=O)Nc3cccc(C(C)O)n3)cc2o1 (stereo not drawn) [Example 269, N-(6-(1-Hydroxyethyl)pyridin-2-yl)-2-methyl-4-(4-(methylsulfonyl)phenoxy)-benzofuran-6-carboxamide] | 34.8 | 7000 | 59 |  |  |  |
| Cn1ccc(NC(=O)c2cc(Oc3ccc(C(=O)O)nc3)c3c(c2)OC(C)(C)C3)n1 [Example 180, 5-[2,2-Dimethyl-6-(1-methyl-1H-pyrazol-3-ylcarbamoyl)-2,3-dihydro-benzofuran-4-yloxy]-pyridine-2-carboxylic acid] | 66.5 | > 10000 |  |  |  |  |

More lines, in order of falling EC50 (GK activation), values ahead:

| activation at 10 µM [1] [%] | EC50 (GK activation) [nM] | Emax [%] | EC50 (1 mM ATP, room temperature) [nM] | activation at 10 µM (compound at 10 uM, 1 mM ATP, room temperature) [%] | Emax (1 mM ATP) [%] | Compound |
| --- | --- | --- | --- | --- | --- | --- |
| 89.2 | 4500 | 126 |  |  |  | Cc1cc2c(Oc3ccc(S(C)(=O)=O)cc3)cc(C(=O)Nc3ccc(F)cn3)cc2o1 [Example 256, N-(5-Fluoropyridin-2-yl)-2-methyl-4-(4-(methylsulfonyl)-phenoxy)benzofuran-6-carboxamide] |
| 53.3 | 3400 | 71 |  |  |  | Cc1cc2c(Oc3ccc(S(C)(=O)=O)cc3)cc(C(=O)Nc3ccc4c(n3)CCC4)cc2o1 [Example 254, N-(6,7-Dihydro-5H-cyclopenta[b]pyridin-2-yl)-2-methyl-4-(4-(methylsulfonyl)-phenoxy)benzofuran-6-carboxamide] |
| 158 | 2000 | 177 |  |  |  | CC1Cc2c(Oc3ccc(S(C)(=O)=O)cc3)cc(C(=O)Nc3ccn(C)n3)cc2O1 (stereo not drawn) [Example 11, 4-(4-Methanesulfonyl-phenoxy)-2-methyl-2,3-dihydro-benzofuran-6-carboxylic acid(1-methyl-1H-pyrazol-3-yl)-amide] |
| 105 | 1600 | 135 |  |  |  | CN(C)C(=O)c1ccc(Oc2cc(C(=O)Nc3ccn(C)n3)cc3c2CC(C)(C)O3)nc1 [Example 162, 6-[2,2-Dimethyl-6-(1-methyl-1H-pyrazol-3-ylcarbamoyl)-2,3-dihydro-benzofuran-4-yloxy]-N,N-dimethyl-nicotinamide] |
| 86.8 | 1600 | 113 |  |  |  | Cc1ccc(NC(=O)c2cc(Oc3ccc(S(C)(=O)=O)cc3)c3sc(C)cc3c2)nc1 [Example 329, 2-Methyl-N-(5-methylpyridin-2-yl)-7-[4-(methylsulfonyl)-phenoxy]-1-benzothiophene-5-carboxamide] |
| 112 | 680 | 127 |  |  |  | Cn1ccc(NC(=O)c2cc(Oc3cc(F)c(C(=O)N4CCC4)c(F)c3)c3c(c2)OC(C(F)F)C3)n1 (stereo not drawn) [Example 223, 4-[4-(Azetidine-1-carbonyl)-3,5-difluoro-phenoxy]-2-difluoromethyl-2,3-dihydro-benzofuran-6-carboxylic acid (1-methyl-1H-pyrazol-3-yl)-amide] |
| 143 | 625 | 145 |  |  |  | Cn1ccc(NC(=O)c2cc(OCc3cc(O)nc(C4CC4)n3)c3c(c2)OC(C)(C)C3)n1 [Example 95, 4-(2-Cyclopropyl-6-hydroxy-pyrimidin-4-ylmethoxy)-2,2-dimethyl-2,3-dihydro-benzofuran-6-carboxylic acid (1-methyl-1H-pyrazol-3-yl)-amide] |
| 131 | 470 | 123 |  |  |  | Cc1cc2c(Oc3ccc(C(=O)N(C)C)nc3)cc(C(=O)Nc3cnn(C)n3)cc2o1 [Example 278, N,N-Dimethyl-5-(2-methyl-6-((2-methyl-2H-1,2,3-triazol-4-yl)carbamoyl)-benzofuran-4-yloxy)picolinamide] |
| 181 | 410 | 167 |  |  |  | CC(C)NC(=O)c1ccc(Oc2cc(C(=O)Nc3ccn(C)n3)cc3c2CC(C)(C)O3)cc1F [Example 71, 4-(3-Fluoro-4-isopropylcarbamoyl-phenoxy)-2,2-dimethyl-2,3-dihydro-benzofuran-6-carboxylic acid(1-methyl-1H-pyrazol-3-yl)-amide] |
| 73.7 | 410 | 78 |  |  |  | Cc1ccc(NC(=O)c2cc(Oc3ccc(S(C)(=O)=O)cc3)c3cc(CO)oc3c2)nc1 [Example 316, 2-(Hydroxymethyl)-N-(5-methylpyridin-2-yl)-4-(4-(methylsulfonyl)-phenoxy)benzofuran-6-carboxamide] |
| 50.4 | 330 | 56 |  |  |  | Cc1ccc(NC(=O)c2cc(Oc3ccc(C(=O)N(C)C)c(F)c3)c3ccsc3c2)nc1 [Example 358, 4-(4-(Dimethylcarbamoyl)-3-fluorophenoxy)-N-(5-methylpyridin-2-yl)benzo[b]thiophene-6-carboxamide] |
| 230 | 314 | 231 |  |  |  | Cn1ncc(NC(=O)c2cc(Oc3ccc(S(C)(=O)=O)cc3)c3c(c2)OC(C)(C)C3)n1 [Example 20, 4-(4-Methanesulfonyl-phenoxy)-2,2-dimethyl-2,3-dihydro-benzofuran-6-carbo-xylic acid(2-methyl-2H-[1,2,3]triazol-4-yl)-amide] |
| 72.3 | 230 | 81 |  |  |  | COCc1cc2c(Oc3ccc(S(C)(=O)=O)cc3)cc(C(=O)Nc3ccc(C)cn3)cc2o1 [Example 309, 2-(Methoxymethyl)-N-(5-methylpyridin-2-yl)-4-[4-(methylsulfonyl)-phenoxy]-1-benzofuran-6-carboxamide] |
| 141 | 110 | 131 |  |  |  | Cc1cc2c(Oc3ccc(S(=O)(=O)N(C)C)c(F)c3)cc(C(=O)Nc3cnc(N(C)C)cn3)cc2o1 [Example 308, N-[5-(Dimethylamino)pyrazin-2-yl]-4-{4-[(dimethylamino)-sulfonyl]-3-fluorophenoxy}-2-methyl-1-benzofuran-6-carboxamide] |
